The values below come from patent US20230065816A1, “METHODS FOR PREVENTING AND REVERSING OPIOID ANALGESIC TOLERANCE IN SUBJECTS WITH CHRONIC PAIN” (The Reasearch Foundation for Suny, priority 2020, published 2023).

“Also recorded” adds a separate entry of the source.

Assay [1] concerns rats with spinal nerve ligation (SpNL). Nature of the assay: von Frey mechanical allodynia test, spinal morphine tolerance from chronic i.t. morphine. The settings on record: for reversal of spinal morphine antiallodynic tolerance by the single agent: CSD 10 μg or PP2 300 ng i.t. 45 min before i.t. morphine on day 8 or 9 of daily i.t. 15 μg morphine; for reversal of spinal morphine antiallodynic tolerance by the single agent / duration of reversal of morphine tolerance by the single agent: FIGS. 3A, 3B; for duration of reversal of morphine tolerance by the single agent: CSD 10 μg or PP2 300 ng i.t.

Assay [2] has the same test system. Put plainly: von Frey mechanical allodynia test, tolerance from chronic systemic morphine (s.c. morphine pellets). The settings on record: for reversal of spinal morphine antiallodynic tolerance induced by chronic systemic morphine, single agent: CSD or S-CSD 10 μg, PP2 or PP3 300 ng, i.t. on day 8, 45 min before i.t. morphine; for prevention of antiallodynic tolerance to chronic systemic morphine, male rats / prevention of antiallodynic tolerance to chronic systemic morphine, female rats: i.t. 45 min before s.c. morphine pellet implantation on days 1, 3, 5; for prevention of antiallodynic tolerance to chronic systemic morphine, male rats: 10 μg; for prevention of antiallodynic tolerance to chronic systemic morphine, female rats: dose 6 μg or 10 μg.

Assay [3] relates to rats. Put plainly: tail flick latency test, spinal morphine tolerance from chronic i.t. morphine. The settings on record: 9 days of daily 15 μg i.t. morphine. (Thermal pain tests record how soon the animal reacts.)
Assay [4] concerns rats. Put plainly: tail flick latency test, tolerance from chronic systemic morphine (s.c. morphine pellets). The settings on record: i.t. CSD with s.c. morphine pellets; FIG. 4B.

As for `CC(C)(C)n1nc(-c2ccc(Cl)cc2)c2c(N)ncnc21` [PP2, 3-(4-chlorophenyl) 1-(1,1-dimethylethyl)-1H-pyrazolo[3,4-d]pyrimidin-4-amine], the “reversal of spinal morphine antiallodynic tolerance by the single agent” value in assay [1] is “attenuated spinal opioid antiallodynic tolerance”. Also, the “duration of reversal of morphine tolerance by the single agent” value in assay [1] (chronic i.t. morphine) is “lasted for multiple days”. In addition, the “share of opioid naive i.t. morphine responsiveness restored” value in assay [1] (PP2 300 ng i.t. 45 min before i.t. morphine, chronic i.t. morphine, FIG. 3B) is reported as “approximately 60%”. In assay [2] (CSD 10 μg or PP2 300 ng i.t. on day 8, chronic systemic morphine, FIGS. 6A, 6B), the “duration of tolerance-reversing effect” value is recorded as “less than 24 hours”. The “reversal of spinal morphine antiallodynic tolerance induced by chronic systemic morphine, single agent” value in assay [2] (FIGS. 6A, 6B) was “essentially fully restored i.t. morphine antiallodynic action; also recorded: fully restored i.t. morphine antiallodynic effects”.
As to `Nc1ncnc2c1cnn2-c1ccccc1` [PP3, 1-Phenyl-1H-pyrazolo[3,4-d]pyrimidin-4-amine], in assay [2] (FIGS. 6A, 6B), the “reversal of spinal morphine antiallodynic tolerance induced by chronic systemic morphine, single agent” value is “failed to alter antiallodynic action of i.t. morphine; also recorded: devoid of any effect”.
For the compound `CN1CC[C@]23c4c5ccc(O)c4O[C@H]2[C@@H](O)C=C[C@H]3[C@H]1C5` [morphine, (5a,6a)-7,8-didehydro-4,5-epoxy-17-methylmorphinan-3,6-diol], the “analgesic effect of i.t. morphine after chronic daily i.t. morphine (tolerance), tail flick” value in the assay with rats [3] was “lost most of its analgesic effect”. In addition, the “i.t. morphine antiallodynia ED50, morphine naive rats” value in assay [1] (FIG. 1B) worked out at 3.9 µg. Also, the “i.t. morphine antiallodynia ED50, morphine tolerant rats” value in assay [1] (after chronic daily i.t. morphine, FIG. 1B) came out at 13.1 µg. Besides, in assay [1] (chronic daily i.t. morphine, FIG. 1B), the “times more morphine required in tolerant than in naive rats for comparable antiallodynia” value is reported as 3.4 times. For the same compound, the “antiallodynic responsiveness to i.t. morphine after chronic daily i.t. morphine (tolerance)” value in assay [1] (i.t. morphine 15 μg daily, 6 to 9 days, no CSD/PP2) was “complete loss of antiallodynic responsiveness; also recorded: lost most of its antiallodynic effectiveness”. Further, in assay [2] (before pelleting, FIG. 5), the “i.t. morphine antiallodynia ED50, opioid naive rats” value was found to be 5.5 µg. In assay [2] (chronic systemic morphine, FIG. 5), the “fold increase of i.t. morphine ED50 in tolerant vs. opioid naive rats” value worked out at 3.6 fold. In addition, the “reduction of i.t. morphine antiallodynic effects by chronic systemic morphine” value in assay [2] (day 7 of morphine pelleting, before PP2, FIG. 6B) is recorded as “approximately 80%”. The “i.t. morphine antiallodynia ED50, chronic systemic morphine-treated (tolerant) rats” value in assay [2] (s.c. morphine pellets, FIG. 5) turned out to be 19.7 µg.
“H-Arg-Gln-Ile-Lys-Ile-Trp-Phe-Gln-Asn-Arg-Arg-Met-Lys-Trp-Lys-Lys-Asp-Gly-Ile-Trp-Lys-Ala-Ser-Phe-Thr-Thr-Phe-Thr-Val-Thr-Lys-Tyr-Trp-Phe-Tyr-Arg-OH (H-RQIKIWFQNRRMKWKKDGIWKASFTTFTVTKYWFYR-OH) [CSD]”: in assay [1], the “reversal of spinal morphine antiallodynic tolerance by the single agent” value is given as “fully restored i.t morphine antiallodynia; also recorded: tolerance reversal was complete”. In addition, the “duration of reversal of morphine tolerance by the single agent” value in assay [1] (chronic i.t. morphine) was “lasted for multiple days”. Besides, in the assay on rats [4], the “persistence of antinociceptive tolerance blockade after the last i.t. treatment (day 5), tail flick” value came to 2 days. Besides, the “reversal of spinal morphine antiallodynic tolerance induced by chronic systemic morphine, single agent” value in assay [2] (FIGS. 6A, 6B) is recorded as “essentially fully restored i.t. morphine antiallodynic action”. Also, the “reversal of tolerance and effect of reapplication of i.t. CSD, male rat” value in assay [2] (i.t. 6 μg CSD on day 9, reapplication on day 12, morphine pellets, FIG. 7 right panel) was “lasted through day 10; also recorded: again restored morphine antiallodynia”. Moreover, the “prevention of antiallodynic tolerance to chronic systemic morphine, male rats” value in assay [2] (FIG. 4C) is reported as “works identical in males as in females; also recorded: fully manifest”. Also, in assay [2] (FIG. 4A), the “prevention of antiallodynic tolerance to chronic systemic morphine, female rats” value is given as “increase to cutoff in von Frey thresholds; also recorded: fully manifest”. In assay [2] (i.t. CSD 0.33 μg, virtually no pretreatment with i.t. morphine), the “unmasking of antiallodynia of on boarded morphine pellet in systemic morphine tolerant animals” value is recorded as “unmasked robust morphine (from on boarded morphine pellet) antiallodynia”. In addition, the “prevention of tolerance and effect of reapplication of i.t. CSD, female rats” value in assay [2] (i.t. CSD 6 μg before morphine pelleting, last on day 5, re-applied on day 11, FIG. 7 left panel) is given as “prevented morphine tolerance development; also recorded: morphine antiallodynia was fully manifest”. For the same compound, the “reversal of tolerance at lower dose of CSD” value in assay [2] (i.t. CSD 3, 1, or 0.33 μg, chronic systemic morphine, data not shown) was “Full reversal of tolerance development”. Moreover, the “persistence of tolerance blockade after the last i.t. treatment (day 5), female rats” value in assay [2] (i.t. CSD on days 1, 3, 5 with s.c. morphine pellets, FIG. 4A) was 3 days. Moreover, in assay [2] (i.t. CSD on days 1, 3, 5 with s.c. morphine pellets, FIG. 4C), the “persistence of tolerance blockade after the last i.t. treatment (day 5), male rats” value turned out to be 3 days.
With “H-Arg-Gln-Ile-Lys-Ile-Trp-Phe-Gln-Asn-Arg-Arg-Met-Lys-Trp-Lys-Lys-Trp-Gly-Ille-Asp-Lys-Ala-Ser-Phe-Thr-Thr-Phe-Thr-Val-Thr-Lys-Tyr-Trp-Phe-Arg-Tyr-OH (H-RQIKIWFQNRRMKWKKWGIDKASFTTFTVTKYWFRY-OH) [S-CSD]”, the “reversal of spinal morphine antiallodynic tolerance induced by chronic systemic morphine, single agent” value in assay [2] (FIGS. 6A, 6B) was “failed to alter antiallodynic action of i.t. morphine; also recorded: had no effect”. Moreover, the “prevention of antiallodynic tolerance to chronic systemic morphine, male rats” value in assay [2] (FIG. 4C) is reported as “failed to alter morphine tolerance development”. Further, the “prevention of antiallodynic tolerance to chronic systemic morphine, female rats” value in assay [2] (FIG. 4A) is “remained minimal; also recorded: failed to alter morphine tolerance development”.
